Measured values reported in patent US20040156874A1, “Urea- a topical anti-inflammatory” (Bradley Pharmaceuticals, Inc., priority 2003, published 2004).

Experiments:
common organisms = conditions: high concentrations of urea, such as 40%; cited from earlier work
dermal inflammation = test: topical urea applied to inflamed skin; format: in vivo
horny layer of the skin = conditions: normal horny layer or ichthyotic/psoriatic scales soaked in 30% urea solution; cited from earlier work

In the case of NC(N)=O [urea], the antibacterial effect (common organisms) is listed as “mild, antibacterial effect”, the dermal inflammation (dermal inflammation; formulated in a pharmaceutically acceptable base) is listed as “improvement” and the “effectiveness against inflammation due to microbial infection” value (dermal inflammation; inflammation due to microbial infection) is listed as “particularly effective”. The “water uptake of horny layer” value (horny layer of the skin) was “take up much more water”.
